Reference: patent US7563774B2, “Combination of FBPase inhibitors and antidiabetic agents useful for the treatment of diabetes” (Metabasis Therapeutics, Inc., priority 2000, dated 2009)

How the values were obtained:
[1] = test system: C57BL/KsJ db/db mice; assay: Acute combination treatment of a biguanide and an FBPase inhibitor in db/db mice (Example DD); format: in vivo, mouse
Method: Male C57BL/KsJ db/db mice were purchased at 5 weeks of age from Clea Japan, Inc. (Tokyo, Japan). The mice were maintained under standard vivarium conditions (24-26° C., 12-hour light cycle, 12-hour dark cycle) and received standard chow and water ad libitum. […] The treatment groups were control, compound J , metformin, and the combination of compound J and metformin. […] Food was removed after treatment. Blood glucose levels in tail vein samples were measured by means of a Glucoloader-F, an automatic glucose analyzer, (A&T Co., Ltd., Tokyo, Japan).

[2] = test system: Db/db or ob/ob mice; assay: Acute combination treatment of a glycogen phosphorylase inhibitor and an FBPase inhibitor in db/db or ob/ob mice (Example FF); format: in vivo, mouse; conditions: 0.5 to 300 mg/kg p.o.
Method: Db/db or ob/ob mice are purchased at 5 weeks of age from Jackson Laboratories (Bar Harbor, Me.). The mice are maintained under standard vivarium conditions (24-26° C., 12-hour light cycle, 12-hour dark cycle) and receive standard chow and water ad libitum. At more than 10 weeks of age, animals are divided into 4 groups (n=5 to 7/group). […] Food is made available after treatment. Blood glucose levels in tail vein samples are measured by means of standard manual or automated methods.

[3] = test system: Sprague Dawley rats; assay: Oral glucose lowering in overnight fasted Sprague Dawley rats (Example G); format: in vivo, rat; conditions: […]
Method: Oral efficacy of Compound J was assessed in overnight fasted Sprague Dawley rats. […] At 1.5 h or 4 h post drug administration, a blood sample was taken from the tail vein and analyzed for blood glucose by means of an automated glucose analyzer (HemoCue, HemoCue Inc, Mission Viejo, Calif.).

CCOC(=O)[C@H](C)NP(=O)(N[C@@H](C)C(=O)OCC)c1ccc(-c2nc(N)sc2CC(C)C)o1 [Compound J, 2-Amino-5-isobutyl-4-{2-[5-(N,N′-bis((S)-1-ethoxycarbonyl)ethyl)phosphonamido]furanyl}thiazole]
Plasma Glucose, % of pretreatment value ([1]; after 2 hour): (70.2 +/− 14.6) %
Plasma Glucose ([1]; after 2 hour, Compound J and/or metformin 150 mg/kg p.o.): 448.6 ± 42.5 mg/dL
Plasma Glucose ([1]; after 4 hour): 376.7 ± 39.9 mg/dL
Plasma Glucose, % of pretreatment value ([1]; after 4 hour): (72.4 +/− 5.0) %
Plasma Glucose ([1]; after 6 hour): 357.7 ± 40.4 mg/dL
Plasma Glucose, % of pretreatment value ([1]; after 6 hour): (68.7 +/− 5.5) %
Plasma Glucose ([1]; after 8 hour): 386.5 ± 43.1 mg/dL
Plasma Glucose, % of pretreatment value ([1]; after 8 hour): (74.2 +/− 5.8) %
Plasma Glucose ([1]; before (0 hour)): 514.3 ± 23.0 mg/dL
Plasma Glucose, % of pretreatment value ([1]; before (0 hour)): (100.0 +/− 0.0) %
blood glucose lowering ([1]; db/db mice, acute): lowered blood glucose significantly relative to controls
blood glucose lowering [2]: significantly lower blood glucose relative to control values
Glucose Lowering, % ([3]; Compound J 10 mg/kg p.o.): 66%
Glucose Lowering, % ([3]; Compound J 30 mg/kg p.o.): 85%
